Holding throughout (experiment): FRET-based coupled-enzyme protein kinase inhibition assay
Holding throughout (type): biochemical
Conditions in all cases: compound at 10 µM, 1% DMSO

One experiment addresses SRC (Homo sapiens, UniProt P12931). The method, boiled down: (§1)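 Inhibition was quantified ratiometrically, as coumarin over fluorescein emission following 400 nm excitation, on a doubly labeled peptide whose cleavage by development reagent requires it to remain unphosphorylated. Kinase reactions ran 60 min at room temperature with ATP at apparent Km.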
The target of the next experiment is T1, FLT3 (Homo sapiens, UniProt P36888).
T1 sequence (P36888 27-993): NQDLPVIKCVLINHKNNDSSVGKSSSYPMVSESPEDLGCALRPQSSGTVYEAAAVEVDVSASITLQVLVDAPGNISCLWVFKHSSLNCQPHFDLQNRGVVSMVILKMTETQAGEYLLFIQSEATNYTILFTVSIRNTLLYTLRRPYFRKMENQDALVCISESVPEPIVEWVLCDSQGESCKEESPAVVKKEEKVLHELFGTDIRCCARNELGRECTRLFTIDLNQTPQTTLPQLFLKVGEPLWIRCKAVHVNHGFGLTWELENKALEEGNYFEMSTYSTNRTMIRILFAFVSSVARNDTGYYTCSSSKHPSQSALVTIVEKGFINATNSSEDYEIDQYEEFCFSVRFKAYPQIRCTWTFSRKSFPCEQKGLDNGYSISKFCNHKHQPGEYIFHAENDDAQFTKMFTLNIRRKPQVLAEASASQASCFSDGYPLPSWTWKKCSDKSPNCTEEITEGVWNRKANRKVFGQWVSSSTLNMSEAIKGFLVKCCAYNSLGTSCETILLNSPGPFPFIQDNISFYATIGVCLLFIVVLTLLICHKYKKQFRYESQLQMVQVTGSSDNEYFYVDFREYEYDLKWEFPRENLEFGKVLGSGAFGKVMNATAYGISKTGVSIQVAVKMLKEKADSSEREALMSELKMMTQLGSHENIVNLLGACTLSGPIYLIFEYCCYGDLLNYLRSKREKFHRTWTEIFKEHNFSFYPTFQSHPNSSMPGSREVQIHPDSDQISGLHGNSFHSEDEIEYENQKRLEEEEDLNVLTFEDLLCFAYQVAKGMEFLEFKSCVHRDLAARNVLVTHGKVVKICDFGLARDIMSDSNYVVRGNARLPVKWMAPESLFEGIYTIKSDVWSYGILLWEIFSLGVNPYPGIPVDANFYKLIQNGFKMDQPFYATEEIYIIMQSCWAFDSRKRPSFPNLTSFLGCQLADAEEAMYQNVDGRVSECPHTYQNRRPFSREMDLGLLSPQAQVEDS
The method, boiled down: as §1

The target of the next experiment is CSNK1G2 (CK1 gamma 2) (Homo sapiens, UniProt P78368). In outline:
as §1

A further experiment has as its target EGFR (ErbB1) (Homo sapiens, UniProt P00533). In outline:
as §1

For the next experiment, the target named is RPS6KA3 (RSK2) (Homo sapiens, UniProt P51812). The method, boiled down:
as §1

For a further experiment, the target named is CDK1/cyclin B (Homo sapiens, UniProt P06493). The method, boiled down: as §1
Chain of CDK1/cyclin B (P06493 whole entry, species assumed): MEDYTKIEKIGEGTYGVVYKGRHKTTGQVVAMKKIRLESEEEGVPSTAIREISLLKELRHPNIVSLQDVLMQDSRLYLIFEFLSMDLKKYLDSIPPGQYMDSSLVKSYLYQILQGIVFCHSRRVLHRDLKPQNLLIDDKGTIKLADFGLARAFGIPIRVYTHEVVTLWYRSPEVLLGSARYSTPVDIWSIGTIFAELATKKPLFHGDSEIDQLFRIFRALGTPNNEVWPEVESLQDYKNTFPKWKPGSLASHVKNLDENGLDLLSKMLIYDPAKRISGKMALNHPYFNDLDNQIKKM
Chain of CDK1/cyclin B (P14635 whole entry partner, species assumed): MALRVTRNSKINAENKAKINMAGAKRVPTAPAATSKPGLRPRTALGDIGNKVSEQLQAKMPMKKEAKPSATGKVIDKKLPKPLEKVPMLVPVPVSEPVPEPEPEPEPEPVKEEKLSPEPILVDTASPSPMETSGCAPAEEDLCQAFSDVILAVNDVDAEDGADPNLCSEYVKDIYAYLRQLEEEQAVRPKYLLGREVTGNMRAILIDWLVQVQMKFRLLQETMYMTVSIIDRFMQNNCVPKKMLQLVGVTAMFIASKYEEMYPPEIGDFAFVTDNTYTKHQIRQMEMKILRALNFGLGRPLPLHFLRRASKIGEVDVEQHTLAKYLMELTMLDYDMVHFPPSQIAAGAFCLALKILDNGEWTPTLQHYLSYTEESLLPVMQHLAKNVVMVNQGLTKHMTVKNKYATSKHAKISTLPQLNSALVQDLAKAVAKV
The target of a further experiment is RPS6KB1 (p70S6K) (Homo sapiens, UniProt P23443). In outline:
as §1

Another experiment has as its target IGF1R (Homo sapiens, UniProt P08069). The method, boiled down:
as §1

The target of a further experiment is MAPK8 (JNK1) (Homo sapiens, UniProt P45983). The method, boiled down: as §1
Another experiment has as its target KDR (VEGFR2) (Homo sapiens, UniProt P35968). The method, boiled down: as §1

Chain of IGF1R (P08069 31-1367, species assumed): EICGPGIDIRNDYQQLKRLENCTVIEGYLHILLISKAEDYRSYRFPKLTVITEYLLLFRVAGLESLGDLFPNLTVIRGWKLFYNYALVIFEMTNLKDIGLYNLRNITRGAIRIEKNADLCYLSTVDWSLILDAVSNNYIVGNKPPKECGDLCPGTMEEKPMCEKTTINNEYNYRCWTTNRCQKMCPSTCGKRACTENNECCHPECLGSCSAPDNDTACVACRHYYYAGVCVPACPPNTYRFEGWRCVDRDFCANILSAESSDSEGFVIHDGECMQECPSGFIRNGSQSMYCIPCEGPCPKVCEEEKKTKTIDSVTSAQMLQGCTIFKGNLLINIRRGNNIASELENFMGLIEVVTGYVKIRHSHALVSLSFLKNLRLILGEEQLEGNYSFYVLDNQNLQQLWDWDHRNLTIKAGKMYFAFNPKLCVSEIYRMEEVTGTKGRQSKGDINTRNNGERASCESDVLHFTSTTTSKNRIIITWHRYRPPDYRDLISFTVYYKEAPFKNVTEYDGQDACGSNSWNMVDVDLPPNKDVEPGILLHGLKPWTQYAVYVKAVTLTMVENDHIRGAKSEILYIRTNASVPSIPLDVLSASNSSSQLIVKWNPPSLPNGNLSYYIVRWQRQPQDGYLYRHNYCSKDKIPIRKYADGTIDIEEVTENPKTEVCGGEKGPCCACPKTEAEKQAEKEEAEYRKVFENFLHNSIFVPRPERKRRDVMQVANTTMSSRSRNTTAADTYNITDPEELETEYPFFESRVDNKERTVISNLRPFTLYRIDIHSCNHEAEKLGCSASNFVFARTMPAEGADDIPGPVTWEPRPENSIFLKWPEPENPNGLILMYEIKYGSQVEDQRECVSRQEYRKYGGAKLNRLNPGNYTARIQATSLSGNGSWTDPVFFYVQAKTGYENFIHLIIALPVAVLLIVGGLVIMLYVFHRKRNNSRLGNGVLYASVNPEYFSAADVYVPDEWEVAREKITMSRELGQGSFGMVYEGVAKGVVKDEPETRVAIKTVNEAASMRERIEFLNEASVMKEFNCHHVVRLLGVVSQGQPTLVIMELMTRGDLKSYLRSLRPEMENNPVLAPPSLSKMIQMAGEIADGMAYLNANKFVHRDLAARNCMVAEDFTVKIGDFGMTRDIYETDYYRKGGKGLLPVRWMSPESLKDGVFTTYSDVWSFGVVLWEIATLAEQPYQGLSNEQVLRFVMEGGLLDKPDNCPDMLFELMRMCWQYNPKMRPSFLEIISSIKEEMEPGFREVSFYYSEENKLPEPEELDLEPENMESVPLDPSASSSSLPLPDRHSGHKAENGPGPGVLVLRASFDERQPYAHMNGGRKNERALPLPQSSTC
Chain of EGFR (ErbB1) (P00533 25-1210, species assumed): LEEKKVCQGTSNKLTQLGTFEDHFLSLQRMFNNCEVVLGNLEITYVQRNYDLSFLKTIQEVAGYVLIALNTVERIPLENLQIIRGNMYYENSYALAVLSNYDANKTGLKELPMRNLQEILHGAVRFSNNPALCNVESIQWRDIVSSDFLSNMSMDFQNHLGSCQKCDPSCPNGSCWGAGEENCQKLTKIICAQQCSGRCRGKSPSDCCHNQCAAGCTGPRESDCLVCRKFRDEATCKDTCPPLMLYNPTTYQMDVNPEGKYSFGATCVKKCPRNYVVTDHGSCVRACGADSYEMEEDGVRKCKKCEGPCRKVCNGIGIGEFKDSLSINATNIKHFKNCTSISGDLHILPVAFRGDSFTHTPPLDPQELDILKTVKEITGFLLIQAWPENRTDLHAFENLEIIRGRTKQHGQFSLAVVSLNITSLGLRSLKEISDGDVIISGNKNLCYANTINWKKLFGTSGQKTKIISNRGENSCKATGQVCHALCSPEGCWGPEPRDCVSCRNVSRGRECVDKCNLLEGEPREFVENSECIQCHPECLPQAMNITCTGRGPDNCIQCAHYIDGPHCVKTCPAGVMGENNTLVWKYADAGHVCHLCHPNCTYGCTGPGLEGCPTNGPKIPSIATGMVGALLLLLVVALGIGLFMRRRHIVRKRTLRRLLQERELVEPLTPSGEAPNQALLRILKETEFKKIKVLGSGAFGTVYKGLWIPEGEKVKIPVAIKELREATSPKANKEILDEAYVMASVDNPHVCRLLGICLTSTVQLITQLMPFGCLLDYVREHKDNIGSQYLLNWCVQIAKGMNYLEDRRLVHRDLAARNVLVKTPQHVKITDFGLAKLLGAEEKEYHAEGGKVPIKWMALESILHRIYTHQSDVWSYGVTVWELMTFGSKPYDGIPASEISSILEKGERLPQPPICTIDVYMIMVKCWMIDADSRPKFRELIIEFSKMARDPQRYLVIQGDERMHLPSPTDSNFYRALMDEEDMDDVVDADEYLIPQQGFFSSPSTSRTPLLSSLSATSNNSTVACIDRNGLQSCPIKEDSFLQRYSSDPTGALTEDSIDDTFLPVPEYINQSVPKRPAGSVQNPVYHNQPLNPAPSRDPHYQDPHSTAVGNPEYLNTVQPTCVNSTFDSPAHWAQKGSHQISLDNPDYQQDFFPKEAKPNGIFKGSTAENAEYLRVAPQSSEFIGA
Chain of SRC (P12931 whole entry, species assumed): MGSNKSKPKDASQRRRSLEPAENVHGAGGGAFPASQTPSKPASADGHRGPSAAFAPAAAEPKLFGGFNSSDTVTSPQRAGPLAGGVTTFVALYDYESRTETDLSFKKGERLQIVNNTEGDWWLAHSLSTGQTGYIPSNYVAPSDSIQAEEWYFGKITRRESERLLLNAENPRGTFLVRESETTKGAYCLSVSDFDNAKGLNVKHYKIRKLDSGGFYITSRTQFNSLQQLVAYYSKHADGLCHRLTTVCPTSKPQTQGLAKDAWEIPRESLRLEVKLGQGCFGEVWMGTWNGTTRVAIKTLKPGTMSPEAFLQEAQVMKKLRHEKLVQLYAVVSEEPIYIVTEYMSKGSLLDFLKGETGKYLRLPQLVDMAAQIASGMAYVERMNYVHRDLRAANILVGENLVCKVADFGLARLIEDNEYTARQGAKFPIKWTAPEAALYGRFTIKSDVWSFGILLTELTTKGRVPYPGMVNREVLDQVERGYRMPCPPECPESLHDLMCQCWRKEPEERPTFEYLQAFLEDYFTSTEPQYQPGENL
Chain of RPS6KB1 (p70S6K) (P23443 whole entry, species assumed): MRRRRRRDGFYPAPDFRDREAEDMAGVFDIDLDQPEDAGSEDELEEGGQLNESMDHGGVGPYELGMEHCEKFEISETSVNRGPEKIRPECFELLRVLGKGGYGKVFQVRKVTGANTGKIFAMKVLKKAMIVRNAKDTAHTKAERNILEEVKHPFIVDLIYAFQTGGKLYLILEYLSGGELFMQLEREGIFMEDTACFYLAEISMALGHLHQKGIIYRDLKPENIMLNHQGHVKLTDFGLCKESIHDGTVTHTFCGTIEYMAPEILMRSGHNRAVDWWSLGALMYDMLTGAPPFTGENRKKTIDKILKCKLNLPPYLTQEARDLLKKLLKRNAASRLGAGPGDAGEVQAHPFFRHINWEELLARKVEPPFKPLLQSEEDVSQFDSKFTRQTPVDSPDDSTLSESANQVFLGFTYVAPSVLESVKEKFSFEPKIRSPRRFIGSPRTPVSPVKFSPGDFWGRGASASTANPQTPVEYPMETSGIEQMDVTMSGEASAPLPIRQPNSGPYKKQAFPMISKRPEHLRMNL
Chain of CSNK1G2 (CK1 gamma 2) (P78368 whole entry, species assumed): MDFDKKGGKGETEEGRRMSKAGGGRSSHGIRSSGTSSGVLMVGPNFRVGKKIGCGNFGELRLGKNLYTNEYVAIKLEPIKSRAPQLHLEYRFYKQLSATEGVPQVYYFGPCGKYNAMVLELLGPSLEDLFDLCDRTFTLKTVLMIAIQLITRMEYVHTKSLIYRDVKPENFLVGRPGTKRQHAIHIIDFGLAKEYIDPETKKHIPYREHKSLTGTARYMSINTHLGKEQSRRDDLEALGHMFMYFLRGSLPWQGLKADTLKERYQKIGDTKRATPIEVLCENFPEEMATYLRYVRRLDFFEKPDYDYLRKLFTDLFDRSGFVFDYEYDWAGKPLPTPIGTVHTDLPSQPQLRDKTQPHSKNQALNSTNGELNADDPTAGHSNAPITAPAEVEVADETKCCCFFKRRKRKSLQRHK

For orientation: inhibition means the drop in the measured response relative to a control, in per cent. For the compound `Nc1ncnc2c1ncn2[C@@H]1O[C@H](COC(=O)N[C@@H]2CCN(Cc3ccccc3)C2)[C@@H](O)[C@H]1O` [Compound C10], the inhibition at 10 µM worked out at 25% on SRC; 13% at FLT3; 7% on CSNK1G2 (CK1 gamma 2); 27% on EGFR (ErbB1); 8% on RPS6KA3 (RSK2); 11% at CDK1/cyclin B. Besides, the inhibition at 10 µM is 5% against RPS6KB1 (p70S6K), 8% against IGF1R, 6% on MAPK8 (JNK1) and 8% on KDR (VEGFR2).
Regarding `N#CCCN1CCN(C(=O)OC[C@H]2O[C@@H](n3cnc4c(N)ncnc43)[C@H](O)[C@@H]2O)CC1` [Compound C70], the inhibition at 10 µM on SRC was 8%; against FLT3 it was 7%; against CSNK1G2 (CK1 gamma 2) it was 0%; at EGFR (ErbB1), -1%; against RPS6KA3 (RSK2), 2%; on CDK1/cyclin B, 4%. Besides, the inhibition at 10 µM was 6% against RPS6KB1 (p70S6K), 1% against IGF1R, 8% against MAPK8 (JNK1) and -12% against KDR (VEGFR2).
Take `Nc1ncnc2c1ncn2[C@@H]1O[C@H](COC(=O)N2CCS(=O)(=O)CC2)[C@@H](O)[C@H]1O` [Compound C100]: the inhibition at 10 µM at SRC is 8%; against FLT3 it was 9%; at CSNK1G2 (CK1 gamma 2) it was -1%; against EGFR (ErbB1), 8%; at RPS6KA3 (RSK2), 1%; at CDK1/cyclin B, 5%. In addition, the inhibition at 10 µM against RPS6KB1 (p70S6K) was 13%; against IGF1R, 11%; on MAPK8 (JNK1), 7%; against KDR (VEGFR2) it was -3%.

(Values after EP3212201B1, “NUCLEOSIDE KINASE INHIBITORS” (BCI Pharma, priority 2014, dated 2016).)
